We go through 28 molecules from patent US11964953B2, “Substituted aminothiazoles as DGKzeta inhibitors for immune activation” (Bayer Aktiengesellschaft, priority 2020, dated 2024).

For orientation: IC50 means the concentration at which inhibition is half-maximal.

The target in the assay is human DGKζ (Homo sapiens (Human), UniProt Q13574). Nature of the assay: Human DGKζ kinase activity inhibition assay (ADP-Glo). The class given is biochemical. The note with it: in vitro human DGKζ kinase activity inhibition assay; read-out: IC50. The method in brief:
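Enzyme was C-terminally FLAG-tagged full-length recombinant human DGKζ from baculovirus-infected insect cells. Substrate preparation used octyl-β-D-glucopyranoside in 50 mM MOPS pH 7.4 with sonication; ADP generated was quantified by ADP-Glo luminescence as activity measure.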
On the technique in general: ADP-Glo turns the ADP formed in a reaction into a luminescent signal.

human DGKζ, sequence (Q13574 other isoform, or with tags, fused parts or gaps): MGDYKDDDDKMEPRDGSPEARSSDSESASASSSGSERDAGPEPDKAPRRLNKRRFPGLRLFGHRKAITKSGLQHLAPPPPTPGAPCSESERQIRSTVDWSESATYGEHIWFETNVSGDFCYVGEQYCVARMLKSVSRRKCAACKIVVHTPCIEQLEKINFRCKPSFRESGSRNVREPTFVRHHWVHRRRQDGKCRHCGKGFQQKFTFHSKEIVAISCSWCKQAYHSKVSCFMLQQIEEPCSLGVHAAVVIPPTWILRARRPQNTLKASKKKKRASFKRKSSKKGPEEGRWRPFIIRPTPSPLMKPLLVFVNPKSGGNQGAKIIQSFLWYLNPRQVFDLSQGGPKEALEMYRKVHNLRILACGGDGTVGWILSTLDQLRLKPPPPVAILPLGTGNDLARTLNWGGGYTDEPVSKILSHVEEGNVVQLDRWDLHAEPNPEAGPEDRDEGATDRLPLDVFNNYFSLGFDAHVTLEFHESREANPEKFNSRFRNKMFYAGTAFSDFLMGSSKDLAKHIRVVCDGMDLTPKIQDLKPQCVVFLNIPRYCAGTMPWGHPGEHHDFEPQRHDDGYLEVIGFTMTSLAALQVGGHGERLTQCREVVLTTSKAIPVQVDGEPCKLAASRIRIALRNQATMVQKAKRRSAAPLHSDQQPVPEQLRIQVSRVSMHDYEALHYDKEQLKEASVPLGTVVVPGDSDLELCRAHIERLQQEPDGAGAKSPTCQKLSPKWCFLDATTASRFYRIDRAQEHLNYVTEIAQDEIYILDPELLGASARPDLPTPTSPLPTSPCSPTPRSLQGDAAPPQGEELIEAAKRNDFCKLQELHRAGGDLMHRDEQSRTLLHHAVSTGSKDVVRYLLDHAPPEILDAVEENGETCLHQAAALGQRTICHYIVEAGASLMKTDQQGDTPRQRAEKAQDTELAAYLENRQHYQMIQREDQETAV

Turning to `CC(C(N)=O)N(c1ccc(F)cc1)c1nc(N)c(C(=O)c2ccc(OCC(=O)NCc3ccccc3F)cc2)s1` (racemic) [Example 96, rac-2-(N-[4-amino-5-[4-[2-[(2-fluorophenyl)methylamino]-2-oxo-ethoxy]benzoyl]thiazol-2-yl]-4-fluoro-anilino)propanamide], the IC50 was determined as 31.4 nM. On to `CC(C(N)=O)N(c1ccc(F)cc1)c1nc(N)c(C(=O)c2ccc(OCC(=O)NCc3ccc(F)cc3)cc2)s1` (racemic) [Example 97, rac-2-(N-[4-amino-5-[4-[2-[(4-fluorophenyl)methylamino]-2-oxo-ethoxy]benzoyl]thiazol-2-yl]-4-fluoro-anilino)propanamide], for which the IC50 is 24.7 nM.

For the molecule `CC(C(N)=O)N(c1ccc(F)cc1)c1nc(N)c(C(=O)c2ccc(OCC(=O)NCc3nc4ccccc4[nH]3)cc2)s1` (racemic) [Example 98, rac-2-(N-[4-amino-5-[4-[2-(1H-benzimidazol-2-ylmethylamino)-2-oxo-ethoxy]benzoyl]thiazol-2-yl]-4-fluoro-anilino)propanamide], the IC50 was determined as 73.5 nM. Under `CC(C(N)=O)N(c1ccc(F)cc1)c1nc(N)c(C(=O)c2ccc(OCC(=O)NCC(F)(F)F)cc2)s1` (racemic) [Example 99, rac-2-(N-[4-amino-5-[4-[2-oxo-2-(2,2,2-trifluoroethylamino)ethoxy]benzoyl]thiazol-2-yl]-4-fluoro-anilino)propanamide] stands 75.8 nM; under `CC(C(N)=O)N(c1ccc(F)cc1)c1nc(N)c(C(=O)c2ccc(OCC(=O)N(C)C3CCN(C)CC3)cc2)s1` (racemic) [Example 101, rac-2-(N-[4-amino-5-[4-[2-[methyl-(1-methyl-4-piperidyl)amino]-2-oxo-ethoxy]benzoyl]thiazol-2-yl]-4-fluoro-anilino)propanamide], 329 nM. Under `CONC(=O)COc1ccc(C(=O)c2sc(N(c3ccc(F)cc3)C(C)C(N)=O)nc2N)cc1` (racemic) [Example 102, rac-2-(N-[4-amino-5-[4-[2-(methoxyamino)-2-oxo-ethoxy]benzoyl]thiazol-2-yl]-4-fluoro-anilino)propanamide] stands 506 nM; under `Cc1cc(NC(=O)COc2ccc(C(=O)c3sc(N(c4ccc(F)cc4)C(C)C(N)=O)nc3N)cc2)no1` (racemic) [Example 103, rac-2-(N-[4-amino-5-[4-[2-[(5-methylisoxazol-3-yl)amino]-2-oxo-ethoxy]benzoyl]thiazol-2-yl]-4-fluoro-anilino)propanamide], 41.9 nM; under `CCNC(=O)COc1ccc(C(=O)c2sc(N(c3ccc(F)cc3)C(C)C(N)=O)nc2N)cc1` (racemic) [Example 104, rac-2-(N-[4-amino-5-[4-[2-(ethylamino)-2-oxo-ethoxy]benzoyl]thiazol-2-yl]-4-fluoro-anilino)propanamide], 234 nM.

Regarding `CC(C(N)=O)N(c1ccc(F)cc1)c1nc(N)c(C(=O)c2ccc(OCC(=O)NC3CCCCC3)cc2)s1` (racemic) [Example 106, rac-2-(N-(4-amino-5-[4-[2-(cyclohexylamino)-2-oxo-ethoxy]benzoyl]thiazol-2-yl]-4-fluoro-anilino)propanamide], the IC50 stood at 33.3 nM. In the case of `CC(C(N)=O)N(c1ccc(F)cc1)c1nc(N)c(C(=O)c2ccc(OCC(=O)Nc3cccc(C(N)=O)c3)cc2)s1` (racemic) [Example 107, rac-3-[[2-[4-[4-amino-2-(N-[2-amino-1-methyl-2-oxo-ethyl]-4-fluoro-anilino)thiazole-5-carbonyl]phenoxy]acetyl]amino]benzamide] it was 77.3 nM; in that of `CC(C(N)=O)N(c1ccc(F)cc1)c1nc(N)c(C(=O)c2ccc(OCC(=O)Nc3ccc4ncccc4c3)cc2)s1` (racemic) [Example 108, rac-2-(N-(4-amino-5-[4-[2-oxo-2-(6-quinolylamino)ethoxy]benzoyl]thiazol-2-yl]-4-fluoro-anilino)propanamide], 19.4 nM; in that of `CC(C(N)=O)N(c1ccc(F)cc1)c1nc(N)c(C(=O)c2ccc(OCC(=O)Nc3ccc(C(N)=O)cc3)cc2)s1` (racemic) [Example 109, rac-4-[[2-[4-[4-amino-2-(N-[2-amino-1-methyl-2-oxo-ethyl]-4-fluoro-anilino)thiazole-5-carbonyl]phenoxy]acetyl]amino]benzamide], 51.7 nM. As to `CCN(C)C(=O)COc1ccc(C(=O)c2sc(N(c3ccc(F)cc3)C(C)C(N)=O)nc2N)cc1` (racemic) [Example 111, rac-2-(N-[4-amino-5-[4-[2-[ethyl(methyl)amino]-2-oxo-ethoxy]benzoyl]thiazol-2-yl]-4-fluoro-anilino)propanamide], the IC50 was found to be 334 nM. On to `Cc1cc(NC(=O)COc2ccc(C(=O)c3sc(N(c4ccc(F)cc4)C(C)C(N)=O)nc3N)cc2)on1` (racemic) [Example 112, rac-2-(N-(4-amino-5-[4-[2-[(3-methylisoxazol-5-yl)amino]-2-oxo-ethoxy]benzoyl]thiazol-2-yl]-4-fluoro-anilino)propanamide], for which the IC50 was found to be 300 nM. Under `CC(C(N)=O)N(c1ccc(F)cc1)c1nc(N)c(C(=O)c2ccc(OCC(=O)N(C)CCCN(C)C)cc2)s1` (racemic) [Example 113, rac-2-(N-(4-amino-5-[4-[2-[3-(dimethylamino)propyl-methyl-amino]-2-oxo-ethoxy]benzoyl]thiazol-2-yl]-4-fluoro-anilino)propanamide] stands 703 nM. For the molecule `CC(=O)N1CCN(C(=O)COc2ccc(C(=O)c3sc(N(c4ccc(F)cc4)C(C)C(N)=O)nc3N)cc2)CC1` (racemic) [Example 114, rac-2-(N-[5-[4-[2-(4-acetylpiperazin-1-yl)-2-oxo-ethoxy]benzoyl]-4-amino-thiazol-2-yl]-4-fluoro-anilino)propanamide], the IC50 was determined as 658 nM. For `CC(C(N)=O)N(c1ccc(F)cc1)c1nc(N)c(C(=O)c2ccc(OCC(=O)NCC(O)CO)cc2)s1` (racemic) [Example 116, 2-(N-[4-amino-5-(4-[2-(2,3-dihydroxypropylamino)-2-oxo-ethoxy]benzoyl]thiazol-2-yl]-4-fluoro-anilino)propanamide], the IC50 amounted to 581 nM. For the molecule `COc1ccc(NC(=O)COc2ccc(C(=O)c3sc(N(c4ccc(F)cc4)C(C)C(N)=O)nc3N)cc2)cc1` (racemic) [Example 117, rac-2-(N-[4-amino-5-[4-[2-(4-methoxyanilino)-2-oxo-ethoxy]benzoyl]thiazol-2-yl]-4-fluoro-anilino)propanamide], the IC50 worked out at 14.9 nM. Turning to `CC(C(N)=O)N(c1ccc(F)cc1)c1nc(N)c(C(=O)c2ccc(OCC(=O)Nc3ccc(Cl)cc3)cc2)s1` (racemic) [Example 119, rac-2-(N-[4-amino-5-[4-[2-(4-chloroanilino)-2-oxo-ethoxy]benzoyl]thiazol-2-yl]-4-fluoro-anilino)propanamide], the IC50 is 4.54 nM.

With `CC(C(N)=O)N(c1ccc(F)cc1)c1nc(N)c(C(=O)c2ccc(OCC(=O)NCc3ccccc3Cl)cc2)s1` (racemic) [Example 120, rac-2-(N-[4-amino-5-[4-[2-[(2-chlorophenyl)methylamino]-2-oxo-ethoxy]benzoyl]thiazol-2-yl]-4-fluoro-anilino)propanamide], the IC50 worked out at 16.7 nM. On to `CC(C(N)=O)N(c1ccc(F)cc1)c1nc(N)c(C(=O)c2ccc(OCC(=O)Nc3ccc(F)cc3)cc2)s1` (racemic) [Example 122, rac-2-(N-[4-amino-5-[4-[2-(4-fluoroanilino)-2-oxo-ethoxy]benzoyl]thiazol-2-yl]-4-fluoro-anilino)propanamide], for which the IC50 turned out to be 9.07 nM.

For the molecule `CC(C(N)=O)N(c1ccc(F)cc1)c1nc(N)c(C(=O)c2ccc(OCC(=O)N3CCCCCC3)cc2)s1` (racemic) [Example 123, rac-2-(N-[4-amino-5-[4-[2-(azepan-1-yl)-2-oxo-ethoxy]benzoyl]thiazol-2-yl]-4-fluoro-anilino)propanamide], the IC50 amounted to 100 nM. As for `COc1ccc(CNC(=O)COc2ccc(C(=O)c3sc(N(c4ccc(F)cc4)C(C)C(N)=O)nc3N)cc2)cc1` (racemic) [Example 124, rac-2-(N-[4-amino-5-[4-[2-[(4-methoxyphenyl)methylamino]-2-oxo-ethoxy]benzoyl]thiazol-2-yl]-4-fluoro-anilino)propanamide], the IC50 turned out to be 48.3 nM. On to `CC(NC(=O)COc1ccc(C(=O)c2sc(N(c3ccc(F)cc3)C(C)C(N)=O)nc2N)cc1)c1ccccc1` (racemic) [Example 125, 2-(N-[4-amino-5-[4-[2-oxo-2-(1-phenylethylamino)ethoxy]benzoyl]thiazol-2-yl]-4-fluoro-anilino)propanamide], for which the IC50 came out at 44 nM. As to `Cc1ccc(CNC(=O)COc2ccc(C(=O)c3sc(N(c4ccc(F)cc4)C(C)C(N)=O)nc3N)cc2)cc1` (racemic) [Example 126, rac-2-(N-[4-amino-5-[4-[2-oxo-2-(p-tolylmethylamino)ethoxy]benzoyl]thiazol-2-yl]-4-fluoro-anilino)propanamide], the IC50 was 28.8 nM. Consider `CC(C(N)=O)N(c1ccc(F)cc1)c1nc(N)c(C(=O)c2ccc(OCC(=O)N(C)CCc3ccccc3)cc2)s1` (racemic) [Example 127, rac-2-(N-[4-amino-5-[4-[2-[methyl(2-phenylethyl)amino]-2-oxo-ethoxy]benzoyl]thiazol-2-yl]-4-fluoro-anilino)propanamide], for which the IC50 amounted to 73.1 nM. As to `CC1CCCN(C(=O)COc2ccc(C(=O)c3sc(N(c4ccc(F)cc4)C(C)C(N)=O)nc3N)cc2)C1` (racemic) [Example 128, 2-(N-[4-amino-5-[4-[2-(3-methyl-1-piperidyl)-2-oxo-ethoxy]benzoyl]thiazol-2-yl]-4-fluoro-anilino)propanamide], the IC50 was 72.2 nM. With `CC1CCN(C(=O)COc2ccc(C(=O)c3sc(N(c4ccc(F)cc4)C(C)C(N)=O)nc3N)cc2)CC1` (racemic) [Example 129, rac-2-(N-[4-amino-5-(4-[2-(4-methyl-1-piperidyl)-2-oxo-ethoxy]benzoyl]thiazol-2-yl]-4-fluoro-anilino)propanamide], the IC50 worked out at 97.1 nM.
